Experimental data from patent US20240207263A1, “SELECTIVE MODULATORS OF ATAXIA TELA[…] (ATM) KINASE AND USES THEREOF” (priority 2021, published 2024).

Biological target: ATM (Homo sapiens (Human), UniProt Q13315)
Experiment: biochemical
Format: biochemical
Conditions: read-out: ATM IC50
Source text: Assay a): ATM Biochemical Potency
Data was collected by Caliper.

Chain of ATM (Q13315 whole entry, looked up): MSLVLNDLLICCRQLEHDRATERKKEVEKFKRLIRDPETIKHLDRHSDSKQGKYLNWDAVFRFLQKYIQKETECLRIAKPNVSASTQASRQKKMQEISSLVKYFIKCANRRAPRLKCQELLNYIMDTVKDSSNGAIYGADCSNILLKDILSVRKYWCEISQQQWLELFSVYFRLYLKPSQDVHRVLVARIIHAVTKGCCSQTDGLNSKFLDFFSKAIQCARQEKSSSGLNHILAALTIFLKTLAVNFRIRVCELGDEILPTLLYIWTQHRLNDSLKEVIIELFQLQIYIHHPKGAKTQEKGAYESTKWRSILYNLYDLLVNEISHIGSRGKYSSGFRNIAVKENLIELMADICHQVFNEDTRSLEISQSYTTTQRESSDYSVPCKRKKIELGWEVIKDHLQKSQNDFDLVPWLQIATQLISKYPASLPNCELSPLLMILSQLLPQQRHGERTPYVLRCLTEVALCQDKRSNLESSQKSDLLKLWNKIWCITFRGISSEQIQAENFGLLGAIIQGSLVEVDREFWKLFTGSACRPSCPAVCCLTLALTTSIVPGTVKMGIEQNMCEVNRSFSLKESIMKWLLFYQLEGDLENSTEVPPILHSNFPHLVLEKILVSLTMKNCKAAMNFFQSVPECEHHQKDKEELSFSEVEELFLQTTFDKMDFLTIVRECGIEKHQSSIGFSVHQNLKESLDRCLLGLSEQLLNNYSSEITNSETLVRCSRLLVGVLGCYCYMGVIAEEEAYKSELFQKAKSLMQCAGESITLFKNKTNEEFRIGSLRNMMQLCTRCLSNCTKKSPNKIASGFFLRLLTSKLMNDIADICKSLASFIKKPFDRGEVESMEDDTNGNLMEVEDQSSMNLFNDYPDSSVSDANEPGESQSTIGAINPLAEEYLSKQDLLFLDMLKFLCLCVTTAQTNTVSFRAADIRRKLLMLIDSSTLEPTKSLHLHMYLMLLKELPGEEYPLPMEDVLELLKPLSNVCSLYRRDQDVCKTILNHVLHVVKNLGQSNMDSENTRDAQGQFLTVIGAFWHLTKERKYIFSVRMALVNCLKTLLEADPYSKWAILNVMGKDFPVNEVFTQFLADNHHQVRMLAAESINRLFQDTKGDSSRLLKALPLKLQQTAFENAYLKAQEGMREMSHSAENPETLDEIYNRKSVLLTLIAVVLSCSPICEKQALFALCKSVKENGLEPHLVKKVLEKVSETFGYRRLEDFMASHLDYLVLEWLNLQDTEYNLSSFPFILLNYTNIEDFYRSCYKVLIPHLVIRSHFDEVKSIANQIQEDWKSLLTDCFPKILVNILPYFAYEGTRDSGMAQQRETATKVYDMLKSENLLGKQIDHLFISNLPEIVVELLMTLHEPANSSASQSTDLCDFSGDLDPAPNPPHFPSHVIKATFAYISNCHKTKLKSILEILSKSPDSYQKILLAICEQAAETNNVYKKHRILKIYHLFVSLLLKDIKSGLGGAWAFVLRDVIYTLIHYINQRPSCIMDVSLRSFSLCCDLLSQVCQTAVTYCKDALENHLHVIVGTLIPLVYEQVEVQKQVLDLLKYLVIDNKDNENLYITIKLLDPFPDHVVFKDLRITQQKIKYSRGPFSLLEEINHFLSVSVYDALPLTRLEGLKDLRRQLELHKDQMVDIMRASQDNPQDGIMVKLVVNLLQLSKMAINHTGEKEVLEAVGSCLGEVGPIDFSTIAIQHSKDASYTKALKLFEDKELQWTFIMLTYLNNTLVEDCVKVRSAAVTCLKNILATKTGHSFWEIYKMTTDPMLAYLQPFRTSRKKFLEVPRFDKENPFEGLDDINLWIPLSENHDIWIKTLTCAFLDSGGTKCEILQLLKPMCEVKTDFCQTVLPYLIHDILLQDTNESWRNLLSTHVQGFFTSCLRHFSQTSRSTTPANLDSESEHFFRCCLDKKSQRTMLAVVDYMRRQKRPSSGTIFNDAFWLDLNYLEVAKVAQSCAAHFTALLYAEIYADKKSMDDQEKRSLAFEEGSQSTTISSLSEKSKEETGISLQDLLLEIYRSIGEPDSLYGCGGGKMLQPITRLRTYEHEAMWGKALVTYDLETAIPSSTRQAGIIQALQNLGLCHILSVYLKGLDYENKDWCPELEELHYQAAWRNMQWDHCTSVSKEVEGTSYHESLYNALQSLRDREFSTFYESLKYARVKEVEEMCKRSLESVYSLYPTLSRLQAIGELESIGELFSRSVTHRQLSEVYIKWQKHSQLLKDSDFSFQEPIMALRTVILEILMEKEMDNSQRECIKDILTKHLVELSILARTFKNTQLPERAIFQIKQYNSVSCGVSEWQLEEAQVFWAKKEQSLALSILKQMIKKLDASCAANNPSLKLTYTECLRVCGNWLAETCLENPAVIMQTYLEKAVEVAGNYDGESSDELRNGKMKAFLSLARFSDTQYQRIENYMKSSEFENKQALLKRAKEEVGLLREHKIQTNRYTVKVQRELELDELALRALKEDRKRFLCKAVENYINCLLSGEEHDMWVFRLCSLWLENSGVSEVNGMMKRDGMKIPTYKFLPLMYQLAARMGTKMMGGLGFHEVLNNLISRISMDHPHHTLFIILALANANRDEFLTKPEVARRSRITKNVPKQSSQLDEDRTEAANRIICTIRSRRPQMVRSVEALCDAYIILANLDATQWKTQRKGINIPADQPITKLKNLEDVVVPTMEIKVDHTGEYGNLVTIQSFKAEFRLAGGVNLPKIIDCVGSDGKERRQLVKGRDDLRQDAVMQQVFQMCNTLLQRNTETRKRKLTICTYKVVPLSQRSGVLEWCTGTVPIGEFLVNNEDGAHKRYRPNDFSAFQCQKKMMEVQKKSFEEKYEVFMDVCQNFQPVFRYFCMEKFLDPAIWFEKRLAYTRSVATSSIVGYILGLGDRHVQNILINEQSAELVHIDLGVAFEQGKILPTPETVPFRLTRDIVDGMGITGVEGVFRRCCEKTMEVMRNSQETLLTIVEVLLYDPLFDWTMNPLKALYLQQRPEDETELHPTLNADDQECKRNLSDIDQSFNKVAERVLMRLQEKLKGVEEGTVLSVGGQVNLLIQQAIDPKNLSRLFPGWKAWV

Row | Compound | IC50 [µM]
1 | CC(OCCN1CC2C(C1)C2(F)F)c1ccc(-c2ccc3nnc4c(c3c2)n(C(C)C)c(=O)n4C)cn1 (stereo in doubt) [Example 70, 8-(6-((1S)-1-(2-(6,6-difluoro-3-azabicyclo[3.1.0]hexan-3-yl)ethoxy)ethyl)pyridin-3-yl)-1-isopropyl-3-methyl-1H-imidazo[4,5-c]cinnolin-2(3H)-one] | 0.295
2 | CC(OCCN1CC2C(C1)C2(F)F)c1ccc(-c2ccc3nnc4c(c3c2)n(C(C)C)c(=O)n4C)cn1 (stereo in doubt) [Example 71, 8-(6-((1R)-1-(2-(6,6-difluoro-3-azabicyclo[3.1.0]hexan-3-yl)ethoxy)ethyl)pyridin-3-yl)-1-isopropyl-3-methyl-1H-imidazo[4,5-c]cinnolin-2(3H)-one] | 0.0093
3 | CC(C)n1c(=O)n(C)c2nnc3ccc(-c4ccc(COCCN(C)C)nc4)cc3c21 [Example 2, 8-(6-((2-(dimethylamino)ethoxy)meth-yl)pyridin-3-yl)-1-isopropyl-3-methyl-1H-imidazo[4,5-c]cinnolin-2(3H)-one] | 0.053
4 | CC(C)n1c(=O)n(C)c2nnc3ccc(-c4ccc(COCCN5CCCCC5)nc4)cc3c21 [Example 3, 1-isopropyl-3-methyl-8-(6-((2-(piperidin-1-yl)ethoxy)methyl)pyridin-3-yl)-1H-imidazo[4,5-c]cinnolin-2(3H)-one] | 0.036
5 | CC(C)n1c(=O)n(C)c2nnc3ccc(-c4ccc(COCCN5CCCC5)nc4)cc3c21 [Example 4, 1-isopropyl-3-methyl-8-(6-((2-(pyrrolidin-1-yl)ethoxy)methyl)pyridin-3-yl)-1H-imidazo[4,5-c]cinnolin-2(3H)-one] | 0.063
6 | COCCOCc1ccc(-c2ccc3nnc4c(c3c2)n(C(C)C)c(=O)n4C)cn1 [Example 6, 1-isopropyl-8-(6-((2-methoxyethoxy)methyl)py-ridin-3-yl)-3-methyl-1H-imidazo[4,5-c]cinnolin-2(3H)-one] | 0.469
7 | CC(C)n1c(=O)n(C)c2nnc3ccc(-c4ccc(COC5CCN(C)CC5)nc4)cc3c21 [Example 7, 1-isopropyl-3-methyl-8-(6-(((1-methylpiperidin-4-yl)oxy)methyl)pyridin-3-yl)-1H-imidazo[4,5-c]cinnolin-2(3H)-one] | 0.227
8 | CC(C)n1c(=O)n(C)c2nnc3ccc(-c4ccc(COCCCN(C)C)nc4)cc3c21 [Example 8, 8-(6-((3-(dimethylamino)propoxy)methyl)pyridin-3-yl)-1-isopropyl-3-methyl-1H-imidazo[4,5-c]cinnolin-2(3H)-one] | 0.098
9 | CC(C)n1c(=O)n(C)c2nnc3ccc(-c4ccc(COCC5CCN(C)CC5)nc4)cc3c21 [Example 9, 1-isopropyl-3-methyl-8-(6-(((1-methylpiperidin-4-yl)methoxy)methyl)pyridin-3-yl)-1H-imidazo[4,5-c]cinnolin-2(3H)-one] | 0.18
10 | CC(C)n1c(=O)n(C)c2nnc3ccc(-c4ccc(COCC5CCCN5C)nc4)cc3c21 (centres unmarked) [Example 10, 1-isopropyl-3-methyl-8-(6-(((1-methylpyrrolidin-2-yl)methoxy)methyl)pyridin-3-yl)-1H-imidazo[4,5-c]cinnolin-2(3H)-one] | 0.105
11 | CC(C)n1c(=O)n(C)c2nnc3ccc(-c4ccc(COC5CCN(C)C5)nc4)cc3c21 (centres unmarked) [Example 11, 1-isopropyl-3-methyl-8-(6-(((1-methylpyrrolidin-3-yl)oxy)methyl)pyridin-3-yl)-1H-imidazo[4,5-c]cinnolin-2(3H)-one] | 0.123
12 | CC(C)n1c(=O)n(C)c2nnc3ccc(-c4ccc(COCCCN5CC6CC6C5)nc4)cc3c21 (centres unmarked) [Example 12, 8-(6-((3-(3-azabicyclo[3.1.0]hexan-3-yl)propoxy)methyl)pyridin-3-yl)-1-isopropyl-3-methyl-1H-imidazo[4,5-c]cinnolin-2(3H)-one] | 0.047
13 | CC(C)n1c(=O)n(C)c2nnc3ccc(-c4ccc(COC5CCCN(C)C5)nc4)cc3c21 (centres unmarked) [Example 13, 1-isopropyl-3-methyl-8-(6-(((1-methylpiperidin-3-yl)oxy)methyl)pyridin-3-yl)-1H-imidazo[4,5-c]cinnolin-2(3H)-one] | 0.144
14 | CC(C)n1c(=O)n(C)c2nnc3ccc(-c4ccc(COC5CC(N(C)C)C5)nc4)cc3c21 (centres unmarked) [Example 14, 8-(6-((3-(dimethylamino)cyclobuto-xy)methyl)pyridin-3-yl)-1-isopropyl-3-methyl-1H-imidazo[4,5-c]cinnolin-2(3H)-one] | 0.068
15 | CC(C)n1c(=O)n(C)c2nnc3ccc(-c4ccc(COC5CN(C)C5)nc4)cc3c21 [Example 15, 1-isopropyl-3-methyl-8-(6-(((1-methylazetidin-3-yl)oxy)methyl)pyridin-3-yl)-1H-imidazo[4,5-c]cinnolin-2(3H)-one] | 0.134
16 | CC(COCc1ccc(-c2ccc3nnc4c(c3c2)n(C(C)C)c(=O)n4C)cn1)N1CC2CC2C1 (centres unmarked) [Example 16, 8-(6-((2-(3-azabicyclo[3.1.0]hexan-3-yl)propoxy)methyl)pyridin-3-yl)-1-isopropyl-3-methyl-1H-imidazo[4,5-c]cinnolin-2(3H)-one] | 0.201

Row | Compound | IC50 [µM]
17 | CC(C)n1c(=O)n(C)c2nnc3ccc(-c4ccc(COCC(C)(C)N5CC6CC6C5)nc4)cc3c21 (centres unmarked) [Example 17, 8-(6-((2-(3-azabicyclo[3.1.0]hexan-3-yl)-2-methylpropoxy)methyl)pyridin-3-yl)-1-isopropyl-3-methyl-1H-imidazo[4,5-c]cinnolin-2(3H)-one] | 0.464
18 | CC(C)n1c(=O)n(C)c2nnc3ccc(-c4ccc(COCC5(N6CC7CC7C6)CC5)nc4)cc3c21 (centres unmarked) [Example 18, 8-(6-(((1-(3-azabicyclo[3.1.0]hexan-3-yl)cyclopropyl)methoxy)methyl)pyridin-3-yl)-1-isopropyl-3-methyl-1H-imidazo[4,5-c]cinnolin-2(3H)-one] | 0.377
19 | CC(C)n1c(=O)n(C)c2nnc3ccc(-c4ccc(COCC5CCCN(C)C5)nc4)cc3c21 (centres unmarked) [Example 19, 1-isopropyl-3-methyl-8-(6-(((1-methylpiperidin-3-yl)methoxy)methyl)pyridin-3-yl)-1H-imidazo[4,5-c]cinnolin-2(3H)-one] | 0.099
20 | CC(C)n1c(=O)n(C)c2nnc3ccc(-c4ccc(COCC5CCN(C)C5)nc4)cc3c21 (centres unmarked) [Example 20, 1-isopropyl-3-methyl-8-(6-(((1-methylpyrrolidin-3-yl)methoxy)methyl)pyridin-3-yl)-1H-imidazo[4,5-c]cinnolin-2(3H)-one] | 0.051
21 | CC(CN1CC2CC2C1)OCc1ccc(-c2ccc3nnc4c(c3c2)n(C(C)C)c(=O)n4C)cn1 (centres unmarked) [Example 21, 8-(6-(((1-(3-azabicyclo[3.1.0]hexan-3-yl)propan-2-yl)oxy)methyl)pyridin-3-yl)-1-isopropyl-3-methyl-1H-imidazo[4,5-c]cinnolin-2(3H)-one] | 0.139
22 | CC(C)n1c(=O)n(C)c2nnc3ccc(-c4ccc(COC5(CN6CC7CC7C6)CC5)nc4)cc3c21 (centres unmarked) [Example 23, 8-(6-((1-(3-azabicyclo[3.1.0]hexan-3-ylmethyl)cyclopropoxy)methyl)pyridin-3-yl)-1-isopropyl-3-methyl-1H-imidazo[4,5-c]cinnolin-2(3H)-one] | 0.42
23 | CC(C)n1c(=O)n(C)c2nnc3ccc(-c4ccc(COCCN5CCC(C#N)CC5)nc4)cc3c21 [Example 24, 1-(2-((5-(1-isopropyl-3-methyl-2-oxo-2,3-dihydro-1H-imidazo[4,5-c]cinnolin-8-yl)pyridin-2-yl)methoxy)ethyl)pyiperidine-4-carbonitrile] | 0.026
24 | CC(C)n1c(=O)n(C)c2nnc3ccc(-c4ccc(COCCN5CCC(C#N)C5)nc4)cc3c21 (centres unmarked) [Example 25] | 0.071
25 | CC(C)n1c(=O)n(C)c2nnc3ccc(-c4ccc(COCCN5CCC6(CC6)C5)nc4)cc3c21 [Example 26, 8-(6-((2-(5-azaspiro[2.4]heptan-5-yl)ethoxy)methyl)pyridin-3-yl)-1-isopropyl-3-methyl-1H-imidazo[4,5-c]cinnolin-2(3H)-one] | 0.014
26 | COC1CCN(CCOCc2ccc(-c3ccc4nnc5c(c4c3)n(C(C)C)c(=O)n5C)cn2)CC1 [Example 27, 1-isopropyl-8-(6-((2-(4-methoxypiperidin-1-yl)ethoxy)methyl)pyridin-3-yl)-3-methyl-1H-imidazo[4,5-c]cinnolin-2(3H)-one] | 0.092
27 | CC(C)n1c(=O)n(C)c2nnc3ccc(-c4ccc(COCCN5CC[C@@H](F)C5)nc4)cc3c21 [Example 28, (R)-8-(6-((2-(3-fluoropyrrolidin-1-yl)ethoxy)methyl)pyridin-3-yl)-1-isopropyl-3-methyl-1H-imidazo[4,5-c]cinnolin-2(3H)-one] | 0.081
28 | CC(C)n1c(=O)n(C)c2nnc3ccc(-c4ccc(COCCN5CCC[C@@H]5C)nc4)cc3c21 [Example 29, (S)-1-isopropyl-3-methyl-8-(6-((2-(2-methylpyrrolidin-1-yl)ethoxy)methyl)pyridin-3-yl)-1H-imidazo[4,5-c]cinnolin-2(3H)-one] | 0.068
29 | CC(C)n1c(=O)n(C)c2nnc3ccc(-c4ccc(COCCN5CCC(F)(F)CC5)nc4)cc3c21 [Example 30, 8-(6-((2-(4,4-difluoropiperidin-1-yl)ethoxy)methyl)pyridin-3-yl)-1-isopropyl-3-methyl-1H-imidazo[4,5-c]cinnolin-2(3H)-one] | 0.062
30 | CC(C)n1c(=O)n(C)c2nnc3ccc(-c4ccc(COCCN5CCN(C)CC5)nc4)cc3c21 [Example 32, 1-isopropyl-3-methyl-8-(6-((2-(4-methylpiperazin-1-yl)ethoxy)methyl)pyridin-3-yl)-1H-imidazo[4,5-c]cinnolin-2(3H)-one] | 0.304
31 | CC(C)n1c(=O)n(C)c2nnc3ccc(-c4ccc(COCCN5CCOCC5)nc4)cc3c21 [Example 33, 1-isopropyl-3-methyl-8-(6-((2-morpholinoethoxy)methyl)pyridin-3-yl)-1H-imidazo[4,5-c]cinnolin-2(3H)-one] | 0.058
32 | CC(C)n1c(=O)n(C)c2nnc3ccc(-c4ccc(COCCN5CC[C@H](F)C5)nc4)cc3c21 [Example 34, (S)-8-(6-((2-(3-fluoropyrrolidin-1-yl)ethoxy)methyl)pyridin-3-yl)-1-isopropyl-3-methyl-1H-imidazo[4,5-c]cinnolin-2(3H)-one] | 0.047
